In patent publication US20080009548A1, “AMBROXOL FOR THE TREATMENT OF ACUTE PAIN” (priority 2003, published 2008):

Columns and labels:
[1] = test system: voltage-dependent calcium channels; assay: Patch-Clamp measurement of current through voltage-dependent calcium channels in posterior root ganglia neurons; type: cell-based; settings: neuron cultures from adult rat posterior root ganglia; voltage jumps from −80 mV to 0 mV for 50 ms
Source text: Voltage-dependent calcium channels play an important role in the transmission of pain-related excitation in the nervous system. The blocking of these channels has been described as being helpful for the treatment of acute pain (KA Sluka (1998), JPET 287, 232-237; J Devulder et al. (2001), J Pain Sympt Management 22, 622-626). […] Neurons were dissected from posterior root ganglia of adult rats and placed in short-term culture. The cells were investigated electrophysiologically by the Patch-Clamp method (voltage terminal), and the flow of current through voltage-dependent calcium channels was measured after electrical stimulation (voltage jumps from −80 mV to 0 mV holding potential for 50 ms) in the presence and absence of ambroxol.

human GluR1/2 receptors = target: T1, human GluR1/2 receptors (Homo sapiens, UniProt P42261+P42262); assay: Patch-Clamp measurement of glutamate-induced membrane currents in HEK 293 cells expressing GluR1/2 receptors; type: cell-based; settings: HEK 293 cells expressing human GluR1/2; 1 mM glutamate for 1 s, holding potential −80 mV
T1 construct: expressed in transfected cells; host or cells: HEK 293
T1 sequence (P42261 19-906): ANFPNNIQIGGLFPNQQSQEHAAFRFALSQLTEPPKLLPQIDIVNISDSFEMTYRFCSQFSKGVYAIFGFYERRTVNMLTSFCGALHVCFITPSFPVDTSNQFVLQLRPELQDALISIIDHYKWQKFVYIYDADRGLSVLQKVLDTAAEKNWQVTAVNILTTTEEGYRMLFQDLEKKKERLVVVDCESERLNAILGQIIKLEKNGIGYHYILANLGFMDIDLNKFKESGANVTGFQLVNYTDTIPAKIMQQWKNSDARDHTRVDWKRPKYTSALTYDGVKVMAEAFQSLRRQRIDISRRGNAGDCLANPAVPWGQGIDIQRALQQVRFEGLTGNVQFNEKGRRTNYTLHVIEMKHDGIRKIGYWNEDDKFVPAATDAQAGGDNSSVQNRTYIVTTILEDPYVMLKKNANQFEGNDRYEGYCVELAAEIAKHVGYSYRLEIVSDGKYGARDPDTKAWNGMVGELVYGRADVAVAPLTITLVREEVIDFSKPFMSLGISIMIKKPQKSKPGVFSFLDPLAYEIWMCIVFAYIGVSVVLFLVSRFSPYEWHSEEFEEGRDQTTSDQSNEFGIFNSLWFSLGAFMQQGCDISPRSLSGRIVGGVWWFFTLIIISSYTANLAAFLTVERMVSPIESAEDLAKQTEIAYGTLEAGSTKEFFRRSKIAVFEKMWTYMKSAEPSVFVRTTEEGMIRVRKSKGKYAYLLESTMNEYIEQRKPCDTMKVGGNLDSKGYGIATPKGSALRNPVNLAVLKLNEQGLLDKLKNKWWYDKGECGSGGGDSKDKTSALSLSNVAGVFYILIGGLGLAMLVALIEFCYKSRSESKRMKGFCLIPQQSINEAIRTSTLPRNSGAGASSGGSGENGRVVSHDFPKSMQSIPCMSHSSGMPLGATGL
T1 sequence (P42262 22-883 limits assumed): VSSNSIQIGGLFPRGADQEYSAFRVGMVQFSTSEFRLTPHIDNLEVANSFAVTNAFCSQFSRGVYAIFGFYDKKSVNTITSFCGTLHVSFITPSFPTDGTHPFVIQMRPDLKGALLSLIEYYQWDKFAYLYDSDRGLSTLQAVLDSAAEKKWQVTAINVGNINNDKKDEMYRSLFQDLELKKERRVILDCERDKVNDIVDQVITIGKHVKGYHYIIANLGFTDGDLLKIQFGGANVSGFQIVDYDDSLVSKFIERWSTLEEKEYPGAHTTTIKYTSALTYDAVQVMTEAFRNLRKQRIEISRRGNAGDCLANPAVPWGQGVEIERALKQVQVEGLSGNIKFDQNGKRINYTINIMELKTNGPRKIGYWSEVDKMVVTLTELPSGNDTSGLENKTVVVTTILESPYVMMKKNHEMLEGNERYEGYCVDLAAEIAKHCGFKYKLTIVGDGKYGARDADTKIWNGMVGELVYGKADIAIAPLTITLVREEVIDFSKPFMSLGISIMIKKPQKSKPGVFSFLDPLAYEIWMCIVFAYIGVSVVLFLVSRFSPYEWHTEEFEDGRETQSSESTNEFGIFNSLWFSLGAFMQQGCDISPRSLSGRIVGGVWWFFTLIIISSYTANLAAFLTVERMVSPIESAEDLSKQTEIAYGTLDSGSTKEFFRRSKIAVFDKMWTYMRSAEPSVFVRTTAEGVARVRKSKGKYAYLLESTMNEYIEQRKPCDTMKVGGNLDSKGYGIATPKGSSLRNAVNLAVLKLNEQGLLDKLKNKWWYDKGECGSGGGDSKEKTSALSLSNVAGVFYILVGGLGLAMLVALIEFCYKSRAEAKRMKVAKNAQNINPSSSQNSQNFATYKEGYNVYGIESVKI
Experimental: Ionotropic glutamate receptors of the AMPA sub-type are also essential for the excitatory neurotransmission. […] The blocking of AMPA receptors has been described as being helpful for the treatment of acute pain (e.g., ji Szekely et al. (1997), EJP 336, 143-154). HEK 293 cells which expressed functionally recombinant human GluR1/2 receptors were electrophysiologically investigated by the Patch-Clamp method ([…]). The administration of 1 mM glutamate (for 1 s at a holding potential of −80 mV) induced membrane currents which were inhibited by the joint administration of ambroxol.

[2] = target: tetrodotoxin-resistant sodium channels (Rattus norvegicus, UniProt Q62968); type: cell-based; settings: neuron cultures from the posterior root ganglia of adult rats; read-out: half-maximal inhibition of tetrodotoxin-resistant sodium channels
[3] = test system: Tetrodotoxin-sensitive currents; type: cell-based, rat; settings: read-out: IC50 of tetrodotoxin-sensitive currents; neuron cultures from the posterior root ganglia of adult rats

Nc1c(Br)cc(Br)cc1CN[C@H]1CC[C@H](O)CC1 [ambroxol, trans-4-(2-amino-3,5-dibromobenzylamino)cyclohexanol]
concentrations that block voltage-dependent calcium channels [1]: 10 to 1000 µM | concentrations that inhibit glutamate-induced membrane currents (human GluR1/2 receptors): 30 to 1000 µM | IC50 [2]: 35 µM | IC50 [3]: > 100 µM
